Patent US10471118B2, “Retinylamine derivitives for treatment of ocular disorders” (CASE WESTERN RESERVE UNIVERSITY, priority 2014, dated 2019)

Legend:
ARPE19 cells = test: ARPE19 cell uptake; format: cell-based, human; conditions: 10 μM, 16 h, compared with Ret-NH2
Protocol: The ARPE19 cells (human RPE cells purchased from American Type Culture Collection) were plated in 6-well plates using Dulbecco's Modified Eagle Medium (DMEM) and allowed to grow to 90% confluency. The cells were then incubated with DMEM containing 10 μM derivatives for 16 hours under dark room conditions. Control group was cell without drug. Medium was removed and cells were washed three times by PBS after 16 h of incubation. Cells were then collected. Samples were treated with 400 μl of methanol, homogenized at 37° C. for 1 h, followed by a centrifugation. The 100 μl of the supernatant was analyzed by reverse phase HPLC. Reverse-phase HPLC (analytical C18 reverse column; 5 μm; 250 mm×4.6 mm; flow rate of 1.0 mL/min; 60:40 acetonitrile:H2O (v:v) with 0.05% trifluoroacetic acid; detection at 325 nm) was utilized to determine retinylamine or its derivative in […].

Caco-2 cells = test: Caco-2 cell monolayer transport; format: in vitro ADME, human; conditions: 500 μM apical, PBS pH 6, within 24 h, compared with Ret-NH2
Protocol: 1. Coating and preparing culture inserts for seeding: Rat tail collagen was diluted 1:9 with 0.5% acetic acid. The resulting solution (200 ul) was added to each insert to coat the surface. The inserts were air-dried overnight, followed by a UV irradiation for 45 min to sterilize the inserts. 2. Seeding cells onto an insert: A concentration of 4×10^5 cells/well EMEM solution containing 20% FBS was added to the precoated insert. Another 2 ml of fresh EMEM media was added to the other side (bottom). The media was changed after 1 day of incubation and every other day after that. The cells were cultured for 21 days until they were mature. 3. Transport experiment: The media was aspirated out. The cell monolayers were washed with PBS three times. Cells were further incubated with PBS for 1 h under 37° C. to allow them to release all the materials that may be taken up during incubation. PBS solution was removed and the prodrug solution (500 μM in 2.0 ml PBS (pH=6) solution) was loaded to the apical side. The basolateral side was loaded with 2.5 ml fresh PBS solution. The plates were incubated under 37° C. Samples of 200 μl were withdrawn from the basolateral side at several time points within 24 h. The drug release amount was determined by UV spectrometer.

RPE65 = RPE65 (Bos taurus, UniProt Q28175); test: Retinoid isomerase activity in RPE microsomes (11-cis-retinol production); format: biochemical, Bovine; conditions: 0.5 to 10 μM compound, 10 μM all-trans-retinol, 1 h
Chain of RPE65 (Q28175 whole entry): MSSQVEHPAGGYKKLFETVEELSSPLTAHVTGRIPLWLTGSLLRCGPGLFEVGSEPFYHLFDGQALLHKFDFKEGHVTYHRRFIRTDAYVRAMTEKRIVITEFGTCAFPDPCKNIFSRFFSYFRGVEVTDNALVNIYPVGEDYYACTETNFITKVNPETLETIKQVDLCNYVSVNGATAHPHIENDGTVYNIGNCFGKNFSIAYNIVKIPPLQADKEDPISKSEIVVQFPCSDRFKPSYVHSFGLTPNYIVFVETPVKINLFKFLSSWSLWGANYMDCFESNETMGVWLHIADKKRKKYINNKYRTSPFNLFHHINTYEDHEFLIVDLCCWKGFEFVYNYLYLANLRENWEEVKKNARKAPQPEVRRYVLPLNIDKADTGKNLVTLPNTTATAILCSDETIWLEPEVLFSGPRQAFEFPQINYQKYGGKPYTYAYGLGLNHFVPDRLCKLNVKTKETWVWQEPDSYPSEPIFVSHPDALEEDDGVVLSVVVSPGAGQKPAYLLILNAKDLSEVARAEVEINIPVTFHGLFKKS
Protocol: To destroy endogenous retinoids, 200-μl aliquots of RPE microsomes placed in a quartz cuvette were irradiated for 5 min at 0° C. with a ChromatoUVE transilluminator (model TM-15; UVP).
All assays were performed under dim red light. 2 μl of the synthesized retinylamine derivatives (RF and RVG) (DMF, 0.5-10 mM) was added into 10 mM Bis-Tris propane buffer (pH 7.4) containing 150 μg RPE microsomes, 1% BSA, 1 mM disodium pyrophosphate and 20 μM apo Retinaldehyde-binding protein 1 (CRALBP). The resulting mixture was pre-incubated at room temperature for 5 min. Then 1 μl all-trans-retinol (DMF, 20 mM) was added. The resulting mixture was incubated at 37° C. for 1 h. Reaction was quenched by addition of 300 μl methanol, and the products were extracted with 300 μl hexanes. Production of 11-cis-retinol was quantified by normal phase HPLC with 10% (v/v) ethyl acetate in hexanes as eluent. Flow rate was 1.4 ml·min^−1 Retinoids were detected by monitoring absorbance at 325 nm and quantified base on a standard curve reflecting relation between amount of 11-cis-retinol and area under the corresponding chromatography peak.

[1] = Storage stability of RVG and Ret-NH2; format: physicochemical
Text: The synthesis was straightforward, and Ret-NH2 reacted with fluorenylmethyloxycarbonyl (Fmoc) protected amino acids or peptides in the presence of coupling agents. The Fmoc group then was removed using 20% piperidine in […] solution to give target molecules. The retinylamine derivatives were characterized by ^1H-NMR, ^13C-NMR and mass spectroscopy. The retinylamine derivatives had the purity over 95% as determined by HPLC except 3m Ret-Gly-Gly (RGG) with the purity of 90% (see SI). We tested the stability of RVG. Less than 5% degradation was observed when RVG was stored in the desiccator under vacuum at r.t. for 2 months, while 95% of Ret-NH2 decomposed under the same condition within 1 week.

| degradation on storage ([1]; stored in the desiccator under vacuum at r.t. for 2 months) | decomposed on storage ([1]; desiccator under vacuum at r.t., within 1 week) [%] | Structure (SMILES) | uptake in ARPE19 cells (ARPE19 cells) | transport through the Caco-2 monolayer (Caco-2 cells) | inhibition of RPE65 on 11-cis-retinol production (RPE65) |
| --- | --- | --- | --- | --- | --- |
| – | – | CC1=C(/C=C/C(C)=C/C=C/C(C)=C/CNC(=O)[C@@H](N)Cc2ccccc2)C(C)(C)CCC1 [RF, (S)-2-amino-N-((2E,4E,6E,8E)-3,7-dimethyl-9-(2,6,6-trimethylcyclohex-1-en-1-yl)nona-2,4,6,8-tetraen-1-yl)-3-phenylpropanamide] | higher uptake in ARPE19 cells than Ret-NH2 | significantly higher transport through the Caco-2 monolayer | partial inhibition, but not in a concentration dependent manner |
| Less than 5% | – | CC1=C(/C=C/C(C)=C/C=C/C(C)=C/CNC(=O)[C@@H](NC(=O)CN)C(C)C)C(C)(C)CCC1 [RVG, (S)-2-(2-aminoacetamido)-N-((2E,4E,6E,8E)-3,7-dimethyl-9-(2,6,6-trimethylcyclohex-1-en-1-yl)nona-2,4,6,8-tetraen-1-yl)-3-methylbutanamide] | higher uptake in ARPE19 cells than Ret-NH2 | significantly higher transport through the Caco-2 monolayer | did not show significant inhibition |
| – | 95 | CC1=C(/C=C/C(C)=C/C=C/C(C)=C/CN)C(C)(C)CCC1 [Ret-NH2, (2E,4E,6E,8E)-3,7-dimethyl-9-(2,6,6-trimethylcyclohex-1-en-1-yl)nona-2,4,6,8-tetraen-1-amine] | – | – | concentration dependent inhibition of RPE65 |
